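Test compounds were applied to cells in 96-well plates for 48 hours at 5 doses. Abbreviation: GI50, concentration required for 50% inhibition of growth.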 Activity calls are given as the source filed them. No stated cut-off is given here; in the data, active = GI50 up to about 1.1 µM and inactive = higher.
Columns and labels:
Experiment in all cases: NCI tumour cell line growth inhibition, 48 h
SF-539 = system: SF-539
NCI-H460 = system: NCI-H460
A549 = system: A549
MOLT-4 = system: MOLT-4
HT-29 = system: HT-29
SK-MEL-2 = system: SK-MEL-2
DU-145 = system: DU-145
LOX IMVI = system: LOX IMVI
786-0 = system: 786-0
IGROV-1 = system: IGROV-1
TK-10 = system: TK-10
CCRF-CEM = system: CCRF-CEM
RPMI-8226 = system: RPMI-8226
K562 = system: K562
SN12C = system: SN12C
MDA-MB-435 = system: MDA-MB-435
MDA-N = system: MDA-N
SK-OV-3 = system: SK-OV-3
UO-31 = system: UO-31
CAKI-1 = system: CAKI-1

Measured: GI50

O=C(/C=C/c1ccccc1)N1CCCCC1
inactive: SF-539 > 100 µM | NCI-H460 > 100 µM | A549 > 100 µM | MOLT-4 > 100 µM | HT-29 > 100 µM | SK-MEL-2 > 100 µM | DU-145 > 100 µM | LOX IMVI > 100 µM | 786-0 > 100 µM | IGROV-1 > 100 µM | TK-10 > 100 µM | CCRF-CEM > 100 µM | RPMI-8226 > 100 µM | K562 > 100 µM | SN12C > 100 µM | MDA-MB-435 > 100 µM | MDA-N > 100 µM | SK-OV-3 > 100 µM | UO-31 > 100 µM | CAKI-1 > 100 µM

N#CC(C#N)/N=N/c1ccc(-c2nc3ccccc3[nH]2)cc1
inactive: SF-539 15.9 µM | NCI-H460 94.6 µM | A549 > 100 µM | MOLT-4 10.9 µM | HT-29 28.7 µM | SK-MEL-2 21.7 µM | DU-145 16.4 µM | LOX IMVI 14.7 µM | 786-0 21.2 µM | IGROV-1 16.8 µM | TK-10 30.8 µM | CCRF-CEM 9.84 µM | RPMI-8226 20.7 µM | K562 19.6 µM | SN12C > 100 µM | MDA-MB-435 18 µM | MDA-N 20 µM | SK-OV-3 > 100 µM | UO-31 14 µM | CAKI-1 24.5 µM

CCOc1c2c(cc3c1C(=O)c1c(OC)cccc1C3=O)C=C(OC)CC2
inactive: SF-539 > 25 µM | NCI-H460 13.3 µM | A549 13.5 µM | MOLT-4 8.71 µM | HT-29 10.3 µM | SK-MEL-2 > 25 µM | DU-145 > 25 µM | LOX IMVI 16.8 µM | 786-0 > 25 µM | IGROV-1 15.2 µM | TK-10 > 25 µM | CCRF-CEM 7.8 µM | RPMI-8226 7.24 µM | K562 6.87 µM | SN12C > 25 µM | MDA-MB-435 8.04 µM | MDA-N 6.49 µM | SK-OV-3 > 25 µM | UO-31 10.9 µM | CAKI-1 > 25 µM

N#Cc1c(N)nc2c3c1NC(=O)C(C(N)=O)C3c1ccccc1O2 (centres undefined)
inactive: SF-539 74 µM | NCI-H460 > 100 µM | A549 > 100 µM | MOLT-4 > 100 µM | HT-29 > 100 µM | SK-MEL-2 > 100 µM | DU-145 67.6 µM | LOX IMVI > 100 µM | 786-0 37.9 µM | IGROV-1 17.3 µM | TK-10 > 100 µM | CCRF-CEM 81.1 µM | RPMI-8226 63 µM | K562 > 100 µM | SN12C > 100 µM | MDA-MB-435 > 100 µM | MDA-N > 100 µM | SK-OV-3 > 100 µM | UO-31 > 100 µM | CAKI-1 > 100 µM

C1C2CC3CC1CC(c1nn4c(C56CC7CC(CC(C7)C5)C6)nnc4s1)(C2)C3
inactive: SF-539 > 100 µM | NCI-H460 > 100 µM | A549 > 100 µM | MOLT-4 > 100 µM | HT-29 > 100 µM | SK-MEL-2 > 100 µM | DU-145 > 100 µM | LOX IMVI > 100 µM | 786-0 > 100 µM | IGROV-1 > 100 µM | TK-10 > 100 µM | CCRF-CEM > 100 µM | RPMI-8226 > 100 µM | K562 > 100 µM | SN12C > 100 µM | MDA-MB-435 > 100 µM | MDA-N > 100 µM | SK-OV-3 > 100 µM | UO-31 > 100 µM | CAKI-1 > 100 µM

CCOC(=O)c1ccc(NC(=O)Oc2ccc3c(C)cc(=O)oc3c2)cc1
inactive: SF-539 > 100 µM | NCI-H460 29.6 µM | A549 43.7 µM | MOLT-4 22.5 µM | HT-29 32.7 µM | SK-MEL-2 23 µM | DU-145 37.2 µM | LOX IMVI 34.5 µM | 786-0 45.6 µM | IGROV-1 38.5 µM | TK-10 > 100 µM | CCRF-CEM 22.6 µM | RPMI-8226 30.3 µM | K562 24.3 µM | SN12C 33.1 µM | MDA-MB-435 35.6 µM | MDA-N 32.1 µM | SK-OV-3 29.6 µM | UO-31 33.1 µM | CAKI-1 36.1 µM

CC(C)=NNc1snnc1C(N)=O
inactive: SF-539 > 100 µM | A549 > 100 µM | MOLT-4 > 100 µM | HT-29 > 100 µM | SK-MEL-2 > 100 µM | DU-145 > 100 µM | LOX IMVI > 100 µM | 786-0 > 100 µM | IGROV-1 > 100 µM | TK-10 > 100 µM | CCRF-CEM > 100 µM | RPMI-8226 > 100 µM | K562 > 100 µM | SN12C > 100 µM | MDA-MB-435 > 100 µM | MDA-N > 100 µM | SK-OV-3 > 100 µM | UO-31 > 100 µM | CAKI-1 > 100 µM

Cc1ccc(OCC2OC(n3cnc4c(Cl)nc(Cl)nc43)CC2Oc2ccc(C)cc2)cc1 (centres undefined)
inactive: SF-539 1.93 µM | NCI-H460 1.87 µM | A549 3.5 µM | MOLT-4 1.94 µM | HT-29 1.57 µM | SK-MEL-2 2.24 µM | DU-145 1.91 µM | LOX IMVI 1.79 µM | 786-0 14.5 µM | IGROV-1 2.04 µM | TK-10 11.2 µM | CCRF-CEM 4.3 µM | RPMI-8226 1.23 µM | SN12C 3.85 µM | MDA-MB-435 2.26 µM | MDA-N 1.93 µM | SK-OV-3 19.2 µM | CAKI-1 1.57 µM

CC1CC/C(=C\c2ccc(Cl)cc2)C2OC(N)=C(C#N)C(c3ccc(Cl)cc3)=C12 (centres undefined)
inactive: SF-539 14.3 µM | MOLT-4 4.37 µM | HT-29 6.92 µM | SK-MEL-2 10.8 µM | DU-145 17 µM | LOX IMVI 13 µM | 786-0 13.6 µM | IGROV-1 12.3 µM | TK-10 25.7 µM | CCRF-CEM 5.06 µM | RPMI-8226 7.6 µM | K562 9.66 µM | SN12C 13.7 µM | MDA-MB-435 18.4 µM | MDA-N 14.7 µM | SK-OV-3 18.2 µM | UO-31 9.31 µM | CAKI-1 15.1 µM

CCOC(=O)/C(C#N)=C/c1ccc(SCc2ccco2)c([N+](=O)[O-])c1
inactive: SF-539 56.8 µM | NCI-H460 > 100 µM | A549 > 100 µM | MOLT-4 > 100 µM | HT-29 > 100 µM | SK-MEL-2 > 100 µM | DU-145 > 100 µM | LOX IMVI > 100 µM | 786-0 > 100 µM | IGROV-1 > 100 µM | CCRF-CEM > 100 µM | RPMI-8226 > 100 µM | K562 > 100 µM | SN12C > 100 µM | MDA-MB-435 > 100 µM | MDA-N > 100 µM | SK-OV-3 > 100 µM | UO-31 > 100 µM | CAKI-1 > 100 µM
